# Results taken from patent US20080213780A1, “MULTI-COLOR TIME RESOLVED FLUOROPHORES BASED ON MACROCYCLIC LANTHANIDE COMPLEXES” (Lumiphore, Inc., priority 2007, published 2008).
# “And” between values parts separate entries of the source, which are not always exact repeats. Identical values can stand only once.
# What was measured:
# [1] = Steady-state absorption and emission spectra; assay type: physicochemical; conditions: for emission wavelength / emission maxima: excited at BH22IAM absorption wavelength (~340 nm)
# Description: FIG. 8 is a steady-state absorption spectrum of FITC-BH22IAM conjugate.
# [2] = Fluorescence lifetime decay (time-resolved) of the donor-acceptor conjugate; assay type: physicochemical; conditions: for long lifetime: excitation of BH22IAM and energy transfer to fluorescein: terbium complex, excited at BH22IAM absorption (~340 nm), fluorescein emission 520 nm
# Description: A short lifetime corresponding to the direct excitation of fluorescein (3.92 nsec) and a long lifetime corresponding to excitation of BH22IAM and energy transfer to fluorescein (524 nsec).
# In another exemplary embodiment, the compounds of the invention emit light at an emission wavelength of the fluorophore attached to the metal chelate through the acceptor-linker. […] For example, compound 3, when coordinated to terbium and excited at a BH22IAM absorption wavelength (˜340 nm), the metal chelate emits at 520 nm, the characteristic wavelength of fluorescein with a lifetime of 524 nsec. The new lifetime is over 100-fold longer than the lifetime for a fluorescein solution that is directly excited (<5 nsec).
# The 524 nsec of the conjugated fluorescein is acquired through direct excitation of the Tb-BH22IAM complex at 340 nm, which normally has a very long lifetime (2.6 msec), followed by energy transfer to the conjugated fluorescein and emission at the characteristic wavelength for fluorescein (520 nm).
Structure (SMILES),absorption maximum (BH22IAM) [1],absorption maximum (fluorescein) [1],emission wavelength / emission maxima [1],long lifetime: excitation of BH22IAM and energy transfer to fluorescein [2],lifetime relative to a directly excited fluorescein solution ([2]; 524 nsec versus <5 nsec)
O=C(O)c1cc(NC(=S)NCCCCC2CN3CCNC(=O)c4cccc(c4O)C(=O)NCCN(CCNC(=O)c4cccc(c4O)C(=O)N2)CCN2CCNC(=O)c4cccc(c4O)C(=O)NCCN(CCNC(=O)c4cccc(c4O)C(=O)NCC2)CC3)ccc1-c1c2ccc(=O)cc-2oc2cc(O)ccc12 (stereo not shown) [4a],340 nm,490 nm,519 nm and 520 nm,520 nsec and 524 nsec,
O=C(O)c1cc(NC(=S)NCCCCC2CN3CCNC(=O)c4cccc(c4O)C(=O)NCCN(CCNC(=O)c4cccc(c4O)C(=O)N2)CCN2CCNC(=O)c4cccc(c4O)C(=O)NCCN(CCNC(=O)c4cccc(c4O)C(=O)NCC2)CC3)ccc1-c1c2ccc(=O)cc-2oc2cc(O)ccc12 (stereo not shown) [compound 3],,,520 nm,524 nsec,over 100 fold
